Consider 28 compounds from patent publication US20240270748A1 (Merck Patent GmbH, priority 2021, published 2024).

Each structure is given as a SMILES string. Where a name gives a salt, the structure may show the parent alone.

The test relates to YAP-TEAD interaction. In words: SK-HEP-1 reporter assay (8xTEAD responsive elements driving NanoLuc luciferase). The class given is cell-based. How it is done: To identify inhibitors of YAP-TEAD interaction, 8×TEAD responsive elements driving the NanoLuc® luciferase gene were stably integrated into SK-HEP-1 cells (ECACC #: 91091816).
For the assay, cells were treated in duplicates with the test compounds in a 10-point dose, with the top concentration starting at 30 μM (final concentration in assay). After a 24 hour incubation at 37° C., 95% rH, and 5% CO2, a luciferase substrate/lysis reagent mix (NanoGlo™, Promega) was added to the cells, allowing the quantification of cellular luciferase activity.
Cell Media: The cells were cultured in the following media: MEM, +10% FBS, +1× GlutaMAX, +1 mM Sodium-Pyruvate, +100 μM Non-essential amino acids, +0.1 mg/ml Hygromycin. The media used for the assay was: MEM (w/o Phenol Red), +10% FBS, +1× GlutaMAX, +1 mM Sodium-Pyruvate, +100 μM Non-essential amino acids, +0.5% Pen/Strep
Reagents: The reagents used are listed below:
Cell culture: The cells were examined using an inverted microscope to check for health and cell density. To dissociate adherent cells, the monolayer of cells was washed once with pre-warmed PBS. After removing the PBS, 3 ml pre-warmed Accutase® was added to a F75 flask, dispersed evenly and the flask was allowed to sit in incubator for ˜4-5 minutes.
When a single cell suspension was obtained, 7 ml of prewarmed growth media was added and resuspended with the cells. The cell suspension was transferred to a sterile 15 ml conical centrifuge tube, and spun for 5 min at 300×g, RT. The supernatant was discarded and the pellet was resuspended in 10 ml of pre-warmed growth media.
The total cell count was determined, and 20 μl of the desired cell number was added to each well of a 384 well plate using a Multidrop Combi. The plates were then incubated for 24 hours at 37° C., 95% rH, and 5% C02.
Compound treatment: 24 hours after seeding, the cells were treated with compounds.
A 1:333 dilution of compounds, diluted in DMSO, was made to get a final concentration of 0.3% DMSO per well. To transfer the compounds to the assay plate, […] was shot from Labcyte low dead volume plates to the cell plates containing 20 μl media/well with the ECHO 555 liquid handling system.
After treatment, the cells were fed with 20 μl fresh pre-warmed assay media using a Multidrop combi.
The assay plates were then incubated for another 24 h at 37° C., 95% rH, and 5% CO2.
Luciferase readout: 24 h after treatment, the plates were taken out of the incubator and were allowed to equilibrate to RT. 30 μl of NanoGlo® reagent was added to the plates in the dark. Plates were shaken for 20 min on a Teleshake (˜1500 rpm) in the dark. The luminescence was then measured using an EnVision microplate reader. The IC50 values were generated using Genedata Screener®.
(A reporter such as luciferase makes a cellular process visible.)

[1] abbreviates: Homo sapiens, SK-HEP1, SK-HEP-1 reporter assay, class symbols.
Setting [2] is: SK-HEP-1 reporter assay, class symbols.
Where [3] appears, read: Homo sapiens, SK-HEP1, SK-HEP-1 reporter assay, n.d. = value not detectable below threshold given in parentheses, ND = not determinable within the entire range.

The compound `Cn1cc2c3nc(C(N)=O)ccc3n(-c3ccc(C(F)(F)F)cc3)c2n1` [Example C229, 4-methyl-7-[4-(trifluoromethyl)phenyl]-4,5,7,12-tetraazatricyclo[6.4.0.0^2,6]dodeca-1(8),2,5,9,11-pentaene-11-carboxamide] had an IC50 under setting [1] of 100 to 10000 nM.

As to `CNC(=O)c1ccc2c(c1)c1cn(C)nc1n2C1CC2(C1)CC(F)(F)C2` [Example C206, 8-{6,6-difluorospiro[3.3]heptan-2-yl}-N,2-dimethyl-2H,8H-pyrazolo[3,4-b]indole-5-carboxamide], the IC50 under setting [1] lay within 10 to 100 nM.

Turning to `Cc1snc2c1c1cc(C(=O)NCc3cnccn3)ccc1n2-c1ccc(C(F)(F)F)cc1` [Example C78, 3-methyl-N-[(pyrazin-2-yl)methyl]-8-[4-(trifluoromethyl)phenyl]-8H-[1,2]thiazolo[3,4-b]indole-5-carboxamide], the IC50 under setting [1] was in the range of 10 to 100 nM.

With `Cn1cnc2c1c1cc(C3CC(Oc4cncnc4)=NO3)ccc1n2-c1ccc(C(F)(F)F)cc1` (stereo not shown) [Example C215, 5-[(5-{1-methyl-4-[4-(trifluoromethyl)phenyl]-1H,4H-imidazo[4,5-b]indol-7-yl}-4,5-dihydro-1,2-oxazol-3-yl)oxy]pyrimidine], the IC50 under setting [2] fell in the range of 100 to 10000 nM.

Compound `Cn1cc2c3cc(NC(=O)CC4CCNC4)ccc3n(-c3ccc(C(F)(F)F)cc3)c2n1` (stereo not shown) [Example C223, N-{2-methyl-8-[4-(trifluoromethyl)-phenyl]-2H,8H-pyrazolo[3,4-b]indol-5-yl}-2-(pyrrolidin-3-yl)acetamide] yielded an IC50 under setting [1] of 100 to 10000 nM.

`Cn1cc2c3cc(C(=O)OCCS(C)(=N)=O)ccc3n(-c3ccc(C(F)(F)F)cc3)c2n1` (stereo not shown) [Example C29, 2-[imino(methyl)oxo-λ^6-sulfanyl]ethyl 2-methyl-8-[4-(trifluoromethyl)phenyl]-2H,8H-pyrazolo[3,4-b]indole-5-carboxylate]: the half-maximal inhibitory concentration (IC50) under setting [1] was 10 to 100 nM.

In the case of `Cn1cc2c3cc(C(=O)N=S(C)(=O)CCN)ccc3n(-c3ccc(C(F)(F)F)cc3)c2n1` (stereo not shown) [Example C36, N-[(2-aminoethyl) (methyl)οxο-λ^6-sulfanylidene]-2-methyl-8-[4-(trifluoromethyl)phenyl]-2H,8H-pyrazolo[3,4-b]indole-5-carboxamide], the IC50 under setting [1] is 100 to 10000 nM.

As for `Cn1cc2c(n1)c1cc(S(=O)(=O)N3CCC[C@@H]3c3cncnc3)ccc1n2-c1ccc(C(F)(F)F)cc1` (single isomer, unassigned) [Example C61], the IC50 under setting [3] is above 1000 nM.

In the case of `COCC[C@H](CO)NC(=O)c1ccc2c(c1)c1c(C)snc1n2-c1ccc(C(F)(F)F)cc1` (single isomer, unassigned) [Example C93], the IC50 under setting [1] was 100 to 10000 nM.

Regarding `Cc1snc2c1c1cc(C(=O)N3CC[C@H](O)C3)ccc1n2-c1ccc(C(F)(F)F)cc1` [Example C49, (3S)-1-{3-methyl-8-[4-(trifluoromethyl)phenyl]-8H-[1,2]thiazolo [3,4-b]indole-5-carbonyl}pyrrolidin-3-ol], the IC50 under setting [1] was 100 to 10000 nM.

With `CC(NC(=O)c1ccc2c(c1)c1cn(C)nc1n2-c1ccc(C(F)(F)F)cc1)c1ncc[nH]1` (stereo not shown) [Example B8], the IC50 under setting [1] lay in the range of 100 to 10000 nM.

`Cn1cc2c3cc(C(=O)N=S4(=O)CC5(CNC5)C4)ccc3n(-c3ccc(C(F)(F)F)cc3)c2n1` [Example C271, 2-methyl-N-{2-oxo-2¿6-thia-6-azaspiro[3.3]heptan-2-ylidene}-8-[4-(trifluoromethyl)phenyl]-2H,8H-pyrazolo[3,4-b]indole-5-carboxamide Formate] registered an IC50 under setting [1] of 100 to 10000 nM.

Compound `Cc1snc2c1c1cc(C(=O)N=S(C)(=O)CCCO)ccc1n2-c1ccc(C(F)(F)F)cc1` (single isomer, unassigned) [Example C103] showed an IC50 under setting [2] of 100 to 10000 nM.

In turn, `C[C@H](CO)C(=O)Nc1ccc2c(c1)c1cn(C)nc1n2-c1ccc(C(F)(F)F)cc1` [Example C154, (2R)-3-hydroxy-2-methyl-N-{2-methyl-8-[4-(trifluoromethyl)phenyl]-2H,8H-pyrazolo[3,4-b]indol-5-yl}propanamide] came in with an IC50 under setting [1] of 100 to 10000 nM.

Consider `C[C@@H](CCN)NC(=O)c1ccc2c(c1)c1cn(C)nc1n2-c1ccc(C(F)(F)F)cc1` [Example C26, N-[(2S)-4-aminobutan-2-yl]-2-methyl-8-[4-(trifluoromethyl)phenyl]-2H,8H-pyrazolo[3,4-b]indole-5-carboxamide], for which, under setting [1], the IC50 fell in the range of 100 to 10000 nM.

Compound `Cn1cc2c3cc(NC(=O)Cc4cccnc4)ccc3n(-c3ccc(C(F)(F)F)cc3)c2n1` [Example C23, N-{2-methyl-8-[4-(trifluoromethyl)-phenyl]-2H,8H-pyrazolo[3,4-b]indol-5-yl}-2-(pyridin-3-yl)acetamide] registered an IC50 under setting [1] of 100 to 10000 nM.

Compound `Cn1cc2c3cc(NC(=O)CC4CNC4)ccc3n(-c3ccc(C(F)(F)F)cc3)c2n1` [Example C244, 2-(azetidin-3-yl)-N-{2-methyl-8-[4-(trifluoromethyl)phenyl]-2H,8H-pyrazolo[3,4-b]indol-5-yl}acetamide formate] gave a half-maximal inhibitory concentration (IC50) under setting [1] of 100 to 10000 nM.

With `C[C@H](NC(=O)c1ccc2c(c1)c1cn(C)nc1n2-c1ccc(C(F)(F)F)cc1)c1ccnc(N)c1` [Example C264], the IC50 under setting [1] fell in the range of 100 to 10000 nM.

On to `Cn1cc2c3cc(C(=O)NC(CO)c4nncn4C)ccc3n(-c3ccc(C(F)(F)F)cc3)c2n1` (stereo not shown) [Example C267, N-[2-hydroxy-1-(4-methyl-4H-1,2,4-triazol-3-yl)ethyl]-2-methyl-8-[4-(trifluoromethyl)phenyl]-2H,8H-pyrazolo[3,4-b]indole-5-carboxamide], for which, under setting [1], the IC50 was in the range of 100 to 10000 nM.

Under setting [1], `Cn1nc2c3cc(C4CC(n5ccnn5)=NO4)ccc3n(-c3ccc(C(F)(F)F)cc3)c2n1` (stereo not shown) [Example C232, 1-(5-{2-methyl-4-[4-(trifluoromethyl)phenyl]-3H,4H-[1,2,3]triazolo[4,5-b]indol-7-yl}-4,5-dihydro-1,2-oxazol-3-yl)-1H-1,2,3-triazole] had an IC50 of 100 to 10000 nM.

As for `Cn1cc2c3nc(C(=O)NCCO)ccc3n(-c3ccc(C(F)(F)F)cc3)c2n1` [Example C113, N-(2-hydroxyethyl)-4-methyl-7-[4-(trifluoromethyl)phenyl]-4,5,7,12-tetraazatricyclo [6.4.0.0^2,6]dodeca-1(8),2,5,9,11-pentaene-11-carboxamide], the IC50 under setting [1] lay within 100 to 10000 nM.

Take `Cn1cc2c(n1)c1cc(S(=O)(=O)N3CCC[C@H]3c3cccnc3)ccc1n2-c1ccc(C(F)(F)F)cc1` (single isomer, unassigned) [Example C14]: the IC50 under setting [1] was above 10000 nM.

In the case of `Cc1snc2c1c1cc(C(=O)N[C@H](CO)c3ccccn3)ccc1n2-c1ccc(C(F)(F)F)cc1` [Example C69, N-[(1S)-2-hydroxy-1-(pyridin-2-yl)ethyl]-3-methyl-8-[4-(trifluoromethyl)phenyl]-8H-[1,2]thiazolo[3,4-b]indole-5-carboxamide], the IC50 under setting [1] is 100 to 10000 nM.

On to `Cn1cc2c3nc(CO)ccc3n(-c3ccc(C(F)(F)F)cc3)c2n1` [Example C116, {4-methyl-7-[4-(trifluoromethyl)phenyl]-4,5,7,12-tetraazatricyclo [6.4.0.0^2,6]dodeca-1(8),2,5,9,11-pentaen-11-yl}methanol], for which the IC50 under setting [1] lay in the range of 100 to 10000 nM.

In turn, `Cn1cc2c3cc(S(=O)(=O)O)ccc3n(-c3ccc(C(F)(F)F)cc3)c2n1` [Example C43, 2-methyl-8-[4-(trifluoromethyl)phenyl]-2H,8H-pyrazolo[3,4-b]indole-5-sulfonic acid] gave a concentration for half-maximal inhibition (IC50) under setting [1] of 100 to 10000 nM.

For `Cn1nnc2c3cc(S(N)(=O)=O)ccc3n(-c3ccc(C(F)(F)F)cc3)c21` [Example C11, 3-methyl-4-[4-(trifluoromethyl)phenyl]-3H,4H-[1,2,3]triazolo[4,5-b]indole-7-sulfonamide], the IC50 under setting [3] is above 30000 nM.

For the compound `C[C@H](CO)NS(=O)(=O)c1ccc2c(c1)c1nnn(C)c1n2-c1ccc(C(F)(F)F)cc1` [Example C13, N-[(2R)-1-hydroxypropan-2-yl]-3-methyl-4-[4-(trifluoromethyl)phenyl]-3H,4H-[1,2,3]triazolo[4,5-b]indole-7-sulfonamide], under setting [3], the IC50 was above 30000 nM.

`Cn1cc2c3cc(C(=O)NC[C@@H](O)C(F)(F)F)ccc3n(-c3ccc(C(F)(F)F)cc3)c2n1` [Example C135, 2-methyl-N-[(2R)-3,3,3-trifluoro-2-hydroxypropyl]-8-[4-(trifluoromethyl)phenyl]-2H,8H-pyrazolo[3,4-b]indole-5-carboxamide] yielded an IC50 under setting [1] of 100 to 10000 nM.

For orientation: IC50 means the concentration that gives 50% inhibition.
